From patent US11214803B2, “Modulators of YAP1 expression” (Ionis Pharmaceuticals, Inc., priority 2019, dated 2022)
Strand notation (5' to 3'): a small letter for the sugar, then the base; units joined by * are phosphorothioate-linked, units joined directly phosphodiester-linked; [ ] holds rarer units or linkages, { } end groups; capitals alone tell only the bases. e = 2'-O-(2-methoxyethyl) (MOE); k = constrained ethyl (cEt); [5mC] = 5-methylcytosine; d = 2'-deoxy (DNA); m = 2'-O-methyl

Tests used:
Yap1 mRNA [1] = assay: Antisense inhibition of human Yap1 in SNU-449 cells by modified oligonucleotides, single dose (Example 5, RTS36584); assay type: cell-based
Procedure, shortened: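 Each modified oligonucleotide is applied by free uptake to SNU-449 cultures at 2,000 nM, and total RNA is harvested around 48 h later. Yap1 transcript, quantified with the RTS36584 set and corrected for RIBOGREEN RNA content, is given as % UTC. Asterisks mark sequences overlapping the amplicon.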

Yap1 mRNA [2] = assay: Antisense inhibition of human Yap1 in A-431 cells by cEt gapmers, single dose (Example 2, RTS4814); assay type: cell-based
Procedure, shortened: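 Each 16-nucleoside gapmer (ten-deoxy gap, three-cEt wings) is tested once at 2,000 nM in A-431 cells by free uptake. Yap1 mRNA after about 48 hours is measured by quantitative RT-PCR and expressed relative to untreated control.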

[3] = Table 48, Yap1 mRNA level relative to untreated control, modified oligonucleotides targeting SEQ ID NO.: 1 and 2
[4] = Yap1 mRNA, percent of untreated control, modified oligonucleotides targeting SEQ ID NO: 1 and 2, Table 47
[5] = Table 22, Yap1 mRNA as percent of untreated control, 3-10-3 cEt gapmers, single dose
[6] = Table 49, Yap1 mRNA level relative to untreated control, modified oligonucleotides targeting SEQ ID NO.: 1 and 2
[7] = Table 43 experiment, SNU-449 cells, 10,000 cells per well, free uptake, 2,000 nM, approximately 48 hours, RTS36584, Yap1 mRNA normalized to RIBOGREEN, relative to untreated control cells
[8] = Table 45, Yap1 mRNA as percent of untreated control, SNU-449 cells, single dose
[9] = Table 40 (separate experiment), SNU-449 cells, 10,000 cells per well, free uptake, 2,000 nM oligonucleotide, approx. 48 hours, RTS36584, normalized to RIBOGREEN, Yap1 mRNA relative to untreated control
[10] = Table 52, Yap1 mRNA, modified oligonucleotides targeting SEQ ID NO: 1 and 2
[11] = Table 46, Yap1 mRNA as percent of untreated control, SNU-449 cells, single dose

1074726 (antisense kG*kG*kT*dA*dT*dA*dA*d[5mC]*dT*dG*dG*dG*d[5mC]*kA*kA*kA) [Compound 1074726]
YAP1 (% UT) (Yap1 mRNA [1]; [3]): 23 % UT
YAP1 (% UTC) (Yap1 mRNA [2]; Table 20, Yap1 mRNA, percent of untreated control, 3-10-3 cEt gapmers targeting SEQ ID NO.: 1 and 2): 2 % UTC

1074756 (kG*k[5mC]*kA*d[5mC]*dT*dT*dT*dT*dA*d[5mC]*dA*dT*dT*kA*kG*kG) [Compound 1074756]
YAP1 (% UT) (Yap1 mRNA [1]; [4]): 8 % UT
YAP1 (% UTC) (Yap1 mRNA [2]; Table 18, A-431 cells, 5,000 cells per well, free uptake, 2,000 nM modified oligonucleotide, approx. 48 hours, RTS4814, normalized to RIBOGREEN, Yap1 mRNA as percent of untreated control): 3 % UTC

1076456 (antisense k[5mC]*kT*kT*dT*dA*dA*dA*dG*dT*dG*dT*dA*dT*kG*kT*k[5mC]) [Compound 1076456]
YAP1 (% UT) (Yap1 mRNA [1]; [3]): 44 % UT
YAP1 (% UTC) (Yap1 mRNA [2]; [5]): 2 % UTC

1074727 (antisense kG*kA*kG*dG*dT*dA*dT*dA*dA*d[5mC]*dT*dG*dG*kG*k[5mC]*kA) [Compound 1074727]
YAP1 (% UT) (Yap1 mRNA [1]; [3]): 51 % UT
YAP1 (% UTC) (Yap1 mRNA [2]; Table 21, Yap1 mRNA, percent of untreated control, 3-10-3 cEt gapmers targeting SEQ ID NO.: 1 and 2): 9 % UTC

716444 (kA*kA*kA*dT*dT*dG*dT*d[5mC]*dT*d[5mC]*dA*dT*dG*k[5mC]*k[5mC]*kT) [Compound 716444]
YAP1 (% UT) (Yap1 mRNA [1]; [4]): 46 % UT
YAP1 (% UTC) (Yap1 mRNA [2]; Table 6, A-431 cells, 5,000 cells per well, free uptake, 2,000 nM modified oligonucleotide, approx. 48 hours, RTS4814, normalized to RIBOGREEN, Yap1 mRNA relative to untreated control cells): 40 % UTC

1074728 (antisense kT*kG*kA*dG*dG*dT*dA*dT*dA*dA*d[5mC]*dT*dG*kG*kG*k[5mC]) [Compound 1074728]
YAP1 (% UT) (Yap1 mRNA [1]; [3]): 14 % UT
YAP1 (% UTC) (Yap1 mRNA [2]; [5]): 3 % UTC

716524 (antisense kA*k[5mC]*kT*dG*dA*dG*dG*dT*dA*dT*dA*dA*d[5mC]*kT*kG*kG) [Compound 716524]
YAP1 (% UT) (Yap1 mRNA [1]; [3]): 59 % UT
YAP1 (% UTC) (Yap1 mRNA [2]; Table 5, A-431 cells, 5,000 cells per well, free uptake, 2,000 nM modified oligonucleotide, approx. 48 hours, RTS4814, normalized to RIBOGREEN, Yap1 mRNA relative to untreated control cells): 35 % UTC

1076453 (kG*kT*kA*dA*dT*dA*dT*dT*dG*d[5mC]*dA*dA*dT*k[5mC]*kT*kG) [Compound 1076453]
YAP1 (% UT) (Yap1 mRNA [1]; [4]): 7 % UT
YAP1 (% UTC) (Yap1 mRNA [2]; Table 19, A-431 cells, 5,000 cells per well, free uptake, 2,000 nM modified oligonucleotide, approx. 48 hours, RTS4814, normalized to RIBOGREEN, Yap1 mRNA as percent of untreated control): 1 % UTC

1198550 (antisense kA*kT*kA*dT*dG*dG*dA*dA*dA*dT*dT*dG*kT*k[5mC]*kT*e[5mC]) [Compound 1198550]
YAP1 (% UT) (Yap1 mRNA [1]; [6]): 17 % UT

1200797 (kA*kT*kT*dA*dG*mA*dG*dT*dA*dT*dG*dT*dG*kG*k[5mC]*kA; antisense) [Compound 1200797]
YAP1 (% UT) (Yap1 mRNA [1]; Table 51, Yap1 mRNA remaining as percent of untreated control (UT), SNU-449 cells, single dose): 11 % UT

1198259 (kA*kA*dT*dA*dT*dT*dG*d[5mC]*dA*dA*dT*e[5mC]*eT*eG*kT*k[5mC]; antisense) [Compound 1198259]
YAP1 (% UTC) (Yap1 mRNA [1]; [7]): 51 % UTC

1197197 (antisense kT*k[5mC]*kA*dG*dA*dT*dT*dT*dA*dG*dG*dA*dT*kG*k[5mC]*kA) [Compound 1197197]
YAP1 (% UT) (Yap1 mRNA [1]; [4]): 20 % UT

1198454 (kA*dG*dA*d[5mC]*dT*dA*dA*dG*dT*dA*dA*kG*eG*kT*eT*kT; antisense) [Compound 1198454]
YAP1 (% UTC) (Yap1 mRNA [1]; Table 39, SNU-449 cells, 10,000 cells per well, free uptake, 2,000 nM oligonucleotide, approx. 48 hours, RTS36584, normalized to RIBOGREEN, Yap1 mRNA relative to untreated control): 39 % UTC

1198308 (kT*kT*kT*dT*dA*d[5mC]*dA*dT*dT*dA*dG*dG*kA*eA*k[5mC]*eA; antisense) [Compound 1198308]
YAP1 (% UT) (Yap1 mRNA [1]; [3]): 68 % UT

1198950 (kA*kT*dA*dT*dT*dG*d[5mC]*dA*dA*dT*d[5mC]*kT*dG*kT*d[5mC]*kT; antisense) [Compound 1198950]
YAP1 (% UTC) (Yap1 mRNA [1]; [8]): 85 % UTC

1198793 (antisense k[5mC]*eT*kT*dT*dA*dA*dA*dG*dT*dG*dT*dA*eT*eG*kT*k[5mC]) [Compound 1198793]
YAP1 (% UTC) (Yap1 mRNA [1]; Table 41, SNU-449 cells, 10,000 cells per well, free uptake, 2,000 nM modified oligonucleotide, approximately 48 hours, RTS36584, normalized to RIBOGREEN, Yap1 mRNA relative to untreated control cells): 34 % UTC

1198874 (kA*kA*dG*dT*dG*dT*dA*dT*dG*dT*d[5mC]*kA*eG*kA*eA*kG) [Compound 1198874]
YAP1 (% UT) (Yap1 mRNA [1]; [4]): 2 % UT

1198799 (antisense k[5mC]*eT*kA*dA*dG*dT*dA*dA*dG*dG*dT*dT*eT*e[5mC]*k[5mC]*k[5mC]) [Compound 1198799]
YAP1 (% UTC) (Yap1 mRNA [1]; [9]): 18 % UTC

1198721 (kA*eT*kG*dG*dA*dA*dA*dT*dT*dG*dT*d[5mC]*eT*e[5mC]*kA*kT; antisense) [Compound 1198721]
YAP1 (% UTC) (Yap1 mRNA [1]; [9]): 48 % UTC

1097238 (antisense kA*kT*kT*dG*d[5mC]*dA*dA*dT*d[5mC]*dT*dG*dT*d[5mC]*kT*kG*kA) [Compound 1097238]
YAP1 (% UT) (Yap1 mRNA [1]; [4]): 77 % UT

1197208 (antisense kT*kA*kA*dT*dA*dT*dT*dG*d[5mC]*dA*dA*dT*d[5mC]*kT*kG*kT) [Compound 1197208]
YAP1 (% UT) (Yap1 mRNA [1]; [4]): 66 % UT

1200852 (kT*kG*kT*dA*dA*mU*dA*dT*dT*dG*d[5mC]*dA*dA*kT*k[5mC]*kT; antisense) [Compound 1200852]
YAP1 (% UT) (Yap1 mRNA [1]; [10]): 32 % UT

1198713 (kT*kT*dA*dG*dA*d[5mC]*dT*dA*dA*dG*dT*dA*kA*eG*kG*eT; antisense) [Compound 1198713]
YAP1 (% UTC) (Yap1 mRNA [1]; Table 42 (separate experiment), SNU-449 cells, 10,000 cells per well, free uptake, 2,000 nM modified oligonucleotide, approximately 48 hours, RTS36584, normalized to RIBOGREEN, Yap1 mRNA relative to untreated control cells): 62 % UTC

1198489 (antisense kT*kT*dG*dG*dA*dA*dG*dA*dT*d[5mC]*dT*eG*kA*eA*kA*e[5mC]) [Compound 1198489]
YAP1 (% UTC) (Yap1 mRNA [1]; Table 44 experiment, SNU-449 cells, 10,000 cells per well, free uptake, 2,000 nM, approximately 48 hours, RTS36584, Yap1 mRNA normalized to RIBOGREEN, relative to untreated control cells): 50 % UTC

1200856 (kT*kG*kT*dA*dT*mG*dT*d[5mC]*dA*dG*dA*dA*dG*kA*kG*kT; antisense) [Compound 1200856]
YAP1 (% UT) (Yap1 mRNA [1]; [10]): 29 % UT

1198244 (kA*kG*dA*dT*dT*dT*dA*dG*dG*dA*dT*eG*e[5mC]*eA*kT*kG; antisense) [Compound 1198244]
YAP1 (% UTC) (Yap1 mRNA [1]; [7]): 24 % UTC

1198343 (kA*kT*kT*dG*d[5mC]*dA*dA*dT*d[5mC]*dT*dG*dT*k[5mC]*eT*kG*eA; antisense) [Compound 1198343]
YAP1 (% UT) (Yap1 mRNA [1]; [3]): 39 % UT

1198766 (kT*e[5mC]*kA*dG*dA*dT*dT*dT*dA*dG*dG*dA*eT*eG*k[5mC]*kA; antisense) [Compound 1198766]
YAP1 (% UTC) (Yap1 mRNA [1]; [9]): 19 % UTC

1198917 (k[5mC]*kA*d[5mC]*dT*dT*dT*dT*dA*d[5mC]*dA*dT*kT*dA*kG*dG*kA; antisense) [Compound 1198917]
YAP1 (% UTC) (Yap1 mRNA [1]; [8]): 21 % UTC

1200845 (k[5mC]*kA*kA*d[5mC]*dT*mC*dT*dT*dA*dT*dA*dT*dG*kG*kT*kT; antisense) [Compound 1200845]
YAP1 (% UT) (Yap1 mRNA [1]; [10]): 100 % UT

1198814 (antisense kA*kG*dA*dG*dT*dA*dT*dG*dT*dG*dG*k[5mC]*eA*kA*eT*kA) [Compound 1198814]
YAP1 (% UT) (Yap1 mRNA [1]; [11]): 13 % UT

1198817 (antisense kA*kT*dT*dA*dG*dA*dG*dT*dA*dT*dG*kT*eG*kG*e[5mC]*kA) [Compound 1198817]
YAP1 (% UT) (Yap1 mRNA [1]; [11]): AksTksTdsAdsGdsAdsGdsTdsAdsTds43 % UT

1198362 (kA*kG*kT*dA*dA*dG*dG*dT*dT*dT*d[5mC]*d[5mC]*k[5mC]*eA*kG*eA; antisense) [Compound 1198362]
YAP1 (% UT) (Yap1 mRNA [1]; [6]): 24 % UT

1198875 (kA*kA*dA*dG*dT*dG*dT*dA*dT*dG*dT*k[5mC]*eA*kG*eA*kA; antisense) [Compound 1198875]
YAP1 (% UT) (Yap1 mRNA [1]; [4]): 5 % UT

1200835 (k[5mC]*kA*kG*dA*dT*mU*dT*dA*dG*dG*dA*dT*dG*k[5mC]*kA*kT; antisense) [Compound 1200835]
YAP1 (% UT) (Yap1 mRNA [1]; [10]): 82 % UT
